Article PMC4226810 (Journal of pharmacokinetics and pharmacodynamics, 2014)
Read-outs that look alike come from different tables or passages of the source.

Tests used:
[1] = Plasma pharmacokinetics after oral administration in MOLM13 xenograft mice; format: in vivo, mouse; conditions: for V / Vmax: one compartment model; for Km: CrTac:NCR-Foxn1nu nude; for Vmax: Michaelis-Menten elimination
[2] = Fraction unbound by modified ultra-filtration method; format: in vitro ADME; conditions: plasma
[3] = tested on: STAT5^Y694 phosphorylation (biomarker of FLT3^ITD activity); assay: Subcutaneous MOLM13 tumor cellular signaling: pSTAT5; format: in vivo, mouse; conditions: for inhibition of phosphorylation of STAT5 at the time of maximum effect: subcutaneous tumor
[4] = tested on: STAT5^Y694 phosphorylation; assay: Orthotopic MOLM13-Luc tumor cellular signaling: pSTAT5; format: in vivo, mouse; conditions: model estimate (%RSE)
[5] = tested on: Rb^S780 phosphorylation (biomarker of CDK4/6 activity); assay: Subcutaneous MOLM13 tumor cellular signaling: pRb; conditions: 50 mg/Kg QD multiple-day dosing, at 240 hr; baseline pRb(0) 82,600
MOLM13-Luc tumors = assay: Orthotopic tumor burden; format: in vivo, mouse; conditions: population mean
[6] = absorption rate constant fixed based on previous studies ref 21, cited from earlier work

Compound	k el ([1]; CrTac:NCR-Foxn1^nu nude, mouse, plasma, oral)	V ([1]; estimate (%RSE))	fraction unbound [2]	ratio of IC50 on pSTAT5, subcutaneous xenograft over orthotopic xenograft ([3]; 27.7 nM vs 6.08 nM)	measured value of pSTAT5 (mean+/−sd) ([3]; 50 mg/Kg QD multiple-day dosing, at 240 hr, baseline pSTAT5(0) 18,000)	inhibition of phosphorylation of STAT5 at the time of maximum effect ([3]; single dose 150mg/kg oral)	Hill coefficient of pSTAT5 inhibition (HAMG) [4]	Km ([1]; mouse, plasma, oral)	Vmax ([1]; estimate (%RSE))	ka ([1]; absorption rate constant, estimate (%RSE))	measured value of pRb (mean+/−sd) [5]	HR Hill coefficient (MOLM13-Luc tumors; pRb term of orthotopic tumor burden model)	HS Hill coefficient (MOLM13-Luc tumors; pSTAT5 term of orthotopic tumor burden model)	inhibition of phosphorylation of STAT5 at the time of maximum effect ([3]; single dose 10mg/kg oral)	ratio of IC50 for pSTAT5 inhibition to IC50 for pRb inhibition ([3]; subcutaneous tumor signaling model)	ka (Fixed) [6]	ka (Fixed) ([6]; listed as Sorafenib)
CC(C)(C)c1cc(NC(=O)Nc2ccc(-c3cn4c(n3)sc3cc(OCCN5CCOCC5)ccc34)cc2)no1 [AC220, quizartinib]	5.31e-05 s⁻¹	0.0964 (10) L	0.0107														
C[C@H]1CC[C@H](n2c3cnccc3c3cnc(Nc4ccc5c(n4)CCN(C(=O)CO)C5)nc32)CC1 [AMG925]		0.109 (7.4) L		4 fold	17020+/−1133	almost completely inhibit	1.92 (4.9)	0.0945 µM	4.16 (3.1) nmol/h	1.00 (20) h^−1	72870+/−1247	14.9	15.1				
CNC(=O)c1cc(Oc2ccc(NC(=O)Nc3ccc(Cl)c(C(F)(F)F)c3)cc2)ccn1 [sorafenib]		0.0247 (4.4) L						0.00985 µM	0.0736 (12) nmol/h					almost completely inhibit	17 fold	3 h⁻¹	3 (Fixed) h^−1
